Laboratory results as given in patent US20190183856A1, “METHODS FOR TREATING CANCER” (Macau University of Science and Technology, priority 2017, published 2019).

Assays:
Format in all cases: cell-based, Human
HCT116 cells [1] = assay: Analysis of cell cycle by flow cytometry (PI staining); conditions: 48 hours
Description: Cell cycle distribution was determined by staining DNA with propidium iodide (PI). Briefly, 1.0×10^6 cells were incubated with or without APTM for 48 hours. Cells were washed with cold PBS and fixed in 70% ethanol at −20° C. for 2 hours. After washing with PBS, cells were stained with cold PI solution (20 μg/ml PI and 200 μg/mI RNase in PBS) for 30 minutes at room temperature in the dark. The percentage of cells in different phases of the cell cycle was determined by flow cytometer (BD Bioscience) and analyzed using FlowJo software.

HCT116 p53−/− cells [2] = assay: Analysis of apoptosis by flow cytometry (Annexin V-FITC/PI), p53-deficient cells; conditions: 48 hours
Description: (§1) Annexin V-FITC/PI double staining method was employed for the apoptosis assay in HCT116 p53+/+ and HCT116 p53−/− cells (1×10^6/well, 6-well plate). After 48 hours of treatment with APTM, cells were harvested in 15 ml centrifuge tubes by gentle scraping followed by centrifugation at 300×g for 5 minutes at room temperature. Cell suspension was washed two times with cold PBS by centrifugation at 300×g for 5 minutes at room temperature. Then cells were harvested, washed twice with cold PBS, and resuspended in 1×binding buffer (100 μL). Cells were transferred into a 1.5 ml micro-centrifuge tubes and stained with propidium iodide (5 μL) and FITC annexin V (5 μL). Cells were briefly vortexed after incubation for 15 minutes in the dark at room temperature. Then cells were filtered and analyzed by flow cytometry. Total apoptotic cells (FITC to Annexin V positive) were counted.

HCT116 p53−/− cells [3] = assay: Assessment of cell morphological changes (Hoechst 33258 staining), p53-deficient cells; conditions: highest concentration of 30 μM, 48 hours
Description: (§2) Cells were plated in 6-well plates (200,000 cells/well) and treated with indicated concentrations of APTM. After incubation for 48 hours, cells were collected, washed with PBS and stained with Hoechst 33258 ([…]) in buffered formalin solution containing 5.6% NP-40. Apoptotic and living cells were viewed through DAPI filter of fluorescence inverted microscope (Leica DM2500 Fluorescence Microscope) at 400× magnifications.

[4] = tested on: Bax and cPARP expression in HCT116 p53−/− cells; assay: Western blotting of apoptosis markers, p53-deficient cells; conditions: different APTM concentrations
Description: (§3) HCT116 cells were treated with APTM at indicated concentrations for 48 hours, and harvested via trypsinization. Protein samples were prepared by scratching cells in RIPA buffer containing protease inhibitor cocktail (Roche) and diluted in SDS-PAGE protein sample buffer. Samples were heated for 5 minutes at 100° C. Protein concentrations were measured using Direct Detect® Infrared Spectrometer (Millipore, USA) according to the manufacturer's instructions. Equal amount of proteins were loaded on 4-20% SDS-polyacrylamide (PAGE) gel. After electrophoresis, gels were transferred to a PVDF membrane (Millipore) and incubated with primary antibodies overnight at 4° C. The membranes were then washed with TBST and incubated with horseradish peroxidase-conjugated anti-rabbit or anti-mouse antibodies (1:10000, Santa Cruz, Calif., USA) for 45 min at room temperature. Proteins were visualized with SuperSignal West Dura Extended Duration Substrate or SuperSignal West Pico Chemiluminescent Substrate (Thermo Scientific) using the Amersham Imager 600 western blotting system.

HCT116 p53+/+ cells = assay: Analysis of apoptosis by flow cytometry (Annexin V-FITC/PI); conditions: 48 hours, control 2.53%
Description: as §1

HCT116 cells [5] = assay: Assessment of cell morphological changes (Hoechst 33258 staining); conditions: HCT116 cells, 3, 10 and 30 μM, 48 hours
Description: as §2

HCT116 p53−/− cells [6] = assay: In vitro cell proliferation assay (SRB assay) on HCT116 p53-/- cells
Description: (§4) Human colon cancer cell line HCT116 (p53+/+) was purchased from ATCC and the p53−/− HCT116 cell line was provided by Bert Vogelstein, Johns Hopkins University. Cells were cultured in McCoy's 5A medium supplemented with 10% FBS, 100 units/ml penicillin G, and 100 μg/ml streptomycin in humidified atmosphere with 5% CO2. Cells were passaged twice weekly to maintain logarithmic growth.
(§5) The anti-proliferative effects of APTM on cancer cell lines were assessed by sulforhodamine B (SRB) colorimetric assay. Cells were seeded in 96-well plates at densities of 5,000 cells per well and cultured overnight. Then cells were susceptible to APTM at indicated concentrations and cultured for indicated times. After incubation, attached cells were fixed with 50 μL cold 50% (w/v) trichloroacetic acid (TCA) for 1 hour at 4° C., washed 5 times with slow-running tap water, and stained with 100 μL 0.4% (w/v) SRB. Optical density at 515 nm (OD515) was measured using a microplate reader (Molecular Devices) after mixing the protein-bound dye with 200 μL 10 mM Tris base solution (pH 10.5). The relative cell growth rate was determined with the following equation: Relative Growth (%)=OD (treated)/OD (control). The IC50 value was defined as the concentration required for a 50% reduction in cell growth.

[7] = tested on: p53/Bax/cPARP signaling axis in HCT116 cells; assay: Western blotting of apoptosis markers p53, Bax, cPARP; conditions: 48 hours
Description: as §3

HCT116 (p53+/+) cells = assay: In vitro cell proliferation assay (SRB assay) on HCT116 cells; conditions: for relative growth rate: 10 μM APTM, percentage of control
Description: as §4, §5

HCT116 cells [8] = assay: Colony formation assay; conditions: 8 days
Description: HCT116 cells were plated at 3,000 cells/well in six-well plates and cultured with indicated concentrations of APTM for 8 days. Cells were stained with 0.2% (w/v) crystal violet in buffered formalin for 20 minutes, and colonies were then photographed and quantified as previously described.

Compound: Cc1cccc(C)c1Nc1sc(C(=O)c2ccc(F)cc2)c(N)c1S(=O)(=O)c1ccccc1 [APTM, [3-Amino-5-[(2,6-dimethylphenyl)amino]-4-(phenylsulfonyl)-2-thienyl](4-fluorophenyl)methanone]
- sub-G0/G1 fraction of cells (HCT116 cells [1]; concentration-dependent): increased
- proportions of cells in G0/G1, S and G2/M phases (HCT116 cells [1]; different concentrations): almost unchanged
- APTM induced apoptosis (annexin V-FITC/PI flow cytometry) (HCT116 p53−/− cells [2]): resistant
- nuclear staining / apoptotic morphological changes (Hoechst staining) (HCT116 p53−/− cells [3]): reserved normal nuclear staining
- Bax and cPARP expression [4]: blunted
- percentage of apoptotic cells (annexin V positive) (HCT116 p53+/+ cells; 3 μM): 7.67%
- percentage of apoptotic cells (annexin V positive) (HCT116 p53+/+ cells; 10 μM): 20.86%
- percentage of apoptotic cells (annexin V positive) (HCT116 p53+/+ cells; 30 μM): 43.7%
- apoptotic morphological changes (Hoechst staining) (HCT116 cells [5]): typical morphological characteristics of apoptosis
- resistance of p53 deficient cells versus HCT116 p53+/+ cells (IC50 ratio) (HCT116 p53−/− cells [6]; HCT116 p53−/− vs HCT116 p53+/+): more than 5 fold
- IC50 (HCT116 p53−/− cells [6]; Homo sapiens, HCT-116, HCT116 p53−/− cells, 33.3 μM highest concentration tested, read-out: IC50 value (50% reduction in cell growth)): > 33.3 µM
- Bax level [7]: induced
- cleaved nuclear poly(ADP-ribose) polymerase (cPARP) level [7]: concentration-dependently induction
- p53 protein level [7]: substantially induced
- relative growth rate (HCT116 (p53+/+) cells; 24 hours): 76.36%
- relative growth rate (HCT116 (p53+/+) cells; 72 hours): 24.57%
- IC50 (HCT116 (p53+/+) cells; Homo sapiens, HCT-116, 48 hours, SRB assay, read-out: IC50 value (50% reduction in cell growth)): 6.57 µM
- Colony formation ability (HCT116 cells [8]; 3.0 μM): significantly decreased
- Colony formation ability (HCT116 cells [8]; 10.0 μM): almost vanished
